# Source: patent US9079902B2, “Heteroaryl sodium channel inhibitors” (AMGEN INC., priority 2011, dated 2015)
# Tests used:
# Nav 1.7 = Nav 1.7 (Homo sapiens (Human), UniProt Q15858); assay: Nav 1.7 in vitro assay (IonWorks Quattro population patch-clamp); type: cell-based; conditions: 293 cells stably transfected with Nav 1.7; 26th pulse to -20 mV, 5 Hz
# Experimental: (§1) Nav 1.7 and Nav 1.5 In Vitro Assay
# (§2) 293 cells stably transfected with either Nav 1.7 or with Nav 1.5 were recorded in population patch-clamp mode with the IonWorks® Quattro automated electrophysiology system in accordance with the manufacturer's specifications (Molecular Devices, LLC, Sunnyvale, Calif.). Sodium channel currents were measured in response to a train of depolarizations that induced successively greater inactivation.
# (§3) Cells were held at −110 mV for three seconds (Nav 1.7) or half a second (Nav 1.5) from a holding voltage of −15 mV, then put through a series of 26 pulses of 150 msec duration to −20 mV at a frequency of 5 Hz. Cells were then left unclamped for a period of 3 to 8 minutes while a single concentration of test compound was added. Cells were then reclamped and put through the same voltage protocol. Current at the end of the 26th pulse to −20 mV was subtracted from the peak current evoked by the 26th pulse to −20 mV to correct for leak current. Percent block was calculated for each concentration in duplicate, and IC50 curves were fitted to percent block as a function of concentration.
# Nav 1.5 = Nav 1.5 (Homo sapiens (Human), UniProt Q14524); assay: Nav 1.5 in vitro assay (IonWorks Quattro population patch-clamp); type: cell-based; conditions: 293 cells stably transfected with Nav 1.5; 26th pulse to -20 mV, 5 Hz
# Experimental: as §1, §2, §3
# Chain of Nav 1.5 (Q14524 whole entry): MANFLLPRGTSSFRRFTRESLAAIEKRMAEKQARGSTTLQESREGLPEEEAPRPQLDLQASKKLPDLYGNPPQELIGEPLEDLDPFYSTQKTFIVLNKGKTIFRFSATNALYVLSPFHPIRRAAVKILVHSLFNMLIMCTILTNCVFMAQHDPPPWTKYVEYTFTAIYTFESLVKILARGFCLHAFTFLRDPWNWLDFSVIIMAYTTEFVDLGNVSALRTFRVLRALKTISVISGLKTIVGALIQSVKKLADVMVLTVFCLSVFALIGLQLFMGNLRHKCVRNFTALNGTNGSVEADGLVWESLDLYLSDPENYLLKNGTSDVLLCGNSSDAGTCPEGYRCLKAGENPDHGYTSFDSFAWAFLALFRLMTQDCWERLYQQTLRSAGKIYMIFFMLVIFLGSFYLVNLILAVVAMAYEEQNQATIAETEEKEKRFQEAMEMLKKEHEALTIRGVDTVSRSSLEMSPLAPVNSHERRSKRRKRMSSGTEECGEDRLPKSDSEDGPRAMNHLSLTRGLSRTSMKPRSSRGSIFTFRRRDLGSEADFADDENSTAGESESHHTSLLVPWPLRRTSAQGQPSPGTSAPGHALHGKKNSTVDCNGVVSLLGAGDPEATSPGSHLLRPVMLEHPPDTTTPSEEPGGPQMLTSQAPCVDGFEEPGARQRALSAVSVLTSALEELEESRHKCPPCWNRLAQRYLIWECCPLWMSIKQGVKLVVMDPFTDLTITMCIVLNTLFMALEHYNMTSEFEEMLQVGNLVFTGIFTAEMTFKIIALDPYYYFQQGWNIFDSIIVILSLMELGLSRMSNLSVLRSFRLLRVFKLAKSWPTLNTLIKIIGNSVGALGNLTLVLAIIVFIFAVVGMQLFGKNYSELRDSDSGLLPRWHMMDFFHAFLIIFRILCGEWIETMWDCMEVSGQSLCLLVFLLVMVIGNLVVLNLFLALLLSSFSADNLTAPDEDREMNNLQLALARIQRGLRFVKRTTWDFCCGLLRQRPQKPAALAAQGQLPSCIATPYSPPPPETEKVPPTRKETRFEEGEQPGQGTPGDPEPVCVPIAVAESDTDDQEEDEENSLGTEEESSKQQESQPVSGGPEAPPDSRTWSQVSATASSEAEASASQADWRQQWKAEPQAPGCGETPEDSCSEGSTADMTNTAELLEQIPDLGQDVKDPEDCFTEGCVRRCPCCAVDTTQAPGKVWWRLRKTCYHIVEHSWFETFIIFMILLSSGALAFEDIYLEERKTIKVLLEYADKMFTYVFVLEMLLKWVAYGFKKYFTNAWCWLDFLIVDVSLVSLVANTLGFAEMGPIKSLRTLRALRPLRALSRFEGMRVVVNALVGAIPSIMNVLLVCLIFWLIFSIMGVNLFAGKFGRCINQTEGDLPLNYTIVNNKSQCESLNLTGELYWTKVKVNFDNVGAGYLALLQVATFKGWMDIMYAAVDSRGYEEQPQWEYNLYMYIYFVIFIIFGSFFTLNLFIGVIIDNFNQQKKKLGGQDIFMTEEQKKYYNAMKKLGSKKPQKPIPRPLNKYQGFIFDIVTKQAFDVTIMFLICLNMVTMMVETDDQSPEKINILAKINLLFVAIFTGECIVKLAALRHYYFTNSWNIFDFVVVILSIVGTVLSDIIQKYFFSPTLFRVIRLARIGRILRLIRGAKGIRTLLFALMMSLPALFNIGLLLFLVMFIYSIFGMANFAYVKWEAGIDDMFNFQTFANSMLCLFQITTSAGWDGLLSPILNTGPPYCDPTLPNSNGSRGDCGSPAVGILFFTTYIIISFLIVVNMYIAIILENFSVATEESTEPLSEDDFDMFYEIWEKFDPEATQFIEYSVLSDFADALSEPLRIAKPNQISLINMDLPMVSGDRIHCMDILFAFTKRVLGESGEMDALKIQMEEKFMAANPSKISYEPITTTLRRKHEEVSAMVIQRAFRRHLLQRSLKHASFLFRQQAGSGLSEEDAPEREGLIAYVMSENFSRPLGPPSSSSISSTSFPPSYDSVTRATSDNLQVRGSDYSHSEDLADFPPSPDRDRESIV
# Chain of Nav 1.7 (Q15858 whole entry): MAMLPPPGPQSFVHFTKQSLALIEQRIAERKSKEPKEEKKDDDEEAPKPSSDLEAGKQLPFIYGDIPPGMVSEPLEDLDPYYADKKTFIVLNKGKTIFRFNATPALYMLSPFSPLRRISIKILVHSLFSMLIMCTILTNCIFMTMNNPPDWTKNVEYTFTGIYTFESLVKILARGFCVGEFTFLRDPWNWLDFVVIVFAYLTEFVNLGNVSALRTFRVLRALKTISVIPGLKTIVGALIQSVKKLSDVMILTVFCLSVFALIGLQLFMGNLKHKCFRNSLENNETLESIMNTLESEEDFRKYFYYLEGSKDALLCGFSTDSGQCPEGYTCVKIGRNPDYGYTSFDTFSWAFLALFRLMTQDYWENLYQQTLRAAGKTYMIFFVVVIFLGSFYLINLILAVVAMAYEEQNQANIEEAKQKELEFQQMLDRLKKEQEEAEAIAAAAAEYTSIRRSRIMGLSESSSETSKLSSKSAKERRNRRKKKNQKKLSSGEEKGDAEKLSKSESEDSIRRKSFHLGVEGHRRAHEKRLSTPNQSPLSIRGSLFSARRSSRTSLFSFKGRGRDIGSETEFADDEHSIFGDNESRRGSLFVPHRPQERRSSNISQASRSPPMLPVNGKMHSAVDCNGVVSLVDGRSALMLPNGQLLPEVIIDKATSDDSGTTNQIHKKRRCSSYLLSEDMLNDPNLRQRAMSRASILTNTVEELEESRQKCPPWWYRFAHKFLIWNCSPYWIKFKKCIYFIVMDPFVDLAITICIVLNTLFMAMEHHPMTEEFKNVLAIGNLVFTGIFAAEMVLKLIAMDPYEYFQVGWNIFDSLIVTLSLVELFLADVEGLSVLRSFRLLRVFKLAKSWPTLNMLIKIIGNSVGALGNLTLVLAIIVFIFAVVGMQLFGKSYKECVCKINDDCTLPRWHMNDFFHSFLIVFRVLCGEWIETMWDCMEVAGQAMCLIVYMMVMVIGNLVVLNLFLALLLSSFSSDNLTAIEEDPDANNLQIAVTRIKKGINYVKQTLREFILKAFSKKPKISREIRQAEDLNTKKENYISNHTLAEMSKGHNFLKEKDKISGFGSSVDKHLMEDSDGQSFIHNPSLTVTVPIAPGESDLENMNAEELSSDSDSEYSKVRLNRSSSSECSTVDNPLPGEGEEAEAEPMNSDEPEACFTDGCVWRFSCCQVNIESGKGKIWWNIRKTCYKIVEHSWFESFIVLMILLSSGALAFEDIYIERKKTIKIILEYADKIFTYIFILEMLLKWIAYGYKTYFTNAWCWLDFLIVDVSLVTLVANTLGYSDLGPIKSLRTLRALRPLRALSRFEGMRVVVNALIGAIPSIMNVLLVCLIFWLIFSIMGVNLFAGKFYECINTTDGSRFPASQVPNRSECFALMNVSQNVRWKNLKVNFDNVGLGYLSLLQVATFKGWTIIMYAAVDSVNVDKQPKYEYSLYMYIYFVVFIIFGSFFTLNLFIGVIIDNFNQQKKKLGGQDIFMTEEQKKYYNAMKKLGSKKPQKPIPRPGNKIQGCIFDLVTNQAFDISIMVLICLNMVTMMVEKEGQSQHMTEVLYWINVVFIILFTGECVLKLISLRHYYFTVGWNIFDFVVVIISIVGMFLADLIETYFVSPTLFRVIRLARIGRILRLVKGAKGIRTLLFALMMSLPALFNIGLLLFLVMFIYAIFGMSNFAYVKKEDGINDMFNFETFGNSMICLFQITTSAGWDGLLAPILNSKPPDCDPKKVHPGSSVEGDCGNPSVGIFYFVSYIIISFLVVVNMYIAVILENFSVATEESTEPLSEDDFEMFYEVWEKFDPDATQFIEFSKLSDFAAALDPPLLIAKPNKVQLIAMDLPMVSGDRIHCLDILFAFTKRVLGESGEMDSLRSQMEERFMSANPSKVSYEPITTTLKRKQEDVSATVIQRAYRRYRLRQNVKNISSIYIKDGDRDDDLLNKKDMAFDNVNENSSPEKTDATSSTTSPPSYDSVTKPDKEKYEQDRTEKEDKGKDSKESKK
IC50 (Nav 1.7) [µM],Structure (SMILES),IC50 (Nav 1.5) [µM]
0.445,"Cn1nccc1-c1cc(Cl)ccc1-c1c[nH]c2cc(S(=O)(=O)Nc3ncns3)ccc12 [Example 1, 3-(4-Chloro-2-(1-Methyl-1H-Pyrazol-5-yl)Phenyl)-N-(1,2,4-Thiadiazol-5-yl)-1H-Indole-6-Sulfonamide]",> 10
0.253,"Cn1nccc1-c1cc(Cl)ccc1-c1cn(C)c2cc(S(=O)(=O)Nc3ncns3)ccc12 [Example 2, 3-(4-Chloro-2-(1-Methyl-1H-Pyrazol-5-yl)Phenyl)-1-Methyl-N-(1,2,4-Thiadiazol-5-yl)-1H-Indole-6-Sulfonamide]",> 10
1.93,"CC(C)n1cc(-c2ccc(C(F)(F)F)cc2-c2ccnn2C)c2ccc(S(=O)(=O)Nc3ncns3)cc21 [Example 3, 1-Isopropyl-3-(2-(1-Methyl-1H-Pyrazol-5-yl)-4-(Trifluoromethyl)Phenyl)-N-(1,2,4-Thiadiazol-5-yl)-1H-Indole-6-Sulfonamide]",> 10
0.0505,"CC(=O)n1cc(-c2ccc(C(F)(F)F)cc2-c2ccnn2C)c2ccc(S(=O)(=O)Nc3ncns3)cc21 [Example 4, 1-Acetyl-3-(2-(1-Methyl-1H-Pyrazol-5-yl)-4-(Trifluoromethyl)Phenyl)-N-(1,2,4-Thiadiazol-5-yl)-1H-Indole-6-Sulfonamide]",> 10
0.724,"Cn1nccc1-c1cc(C(F)(F)F)ccc1-c1c[nH]c2cc(S(=O)(=O)Nc3ncns3)ccc12 [Example 5, 3-(2-(1-Methyl-1H-Pyrazol-5-yl)-4-(Trifluoromethyl)Phenyl)-N-(1,2,4-Thiadiazol-5-yl)-1H-Indole-6-Sulfonamide]",> 10
0.356,"COC(=O)n1cc(-c2ccc(C(F)(F)F)cc2-c2ccnn2C)c2ccc(S(=O)(=O)Nc3ncns3)cc21 [Example 6, Methyl 6-(N-(1,2,4-Thiadiazol-5-yl)Sulfamoyl)-3-(2-(1-Methyl-1H-Pyrazol-5-yl)-4-(Trifluoromethyl)Phenyl)-1H-Indole-1-Carboxylate]",> 10
0.532,"Cn1nccc1-c1cc(C(F)(F)F)ccc1-c1cn(S(C)(=O)=O)c2cc(S(=O)(=O)Nc3ncns3)ccc12 [Example 7, 3-(2-(1-Methyl-1H-Pyrazol-5-yl)-4-(Trifluoromethyl)Phenyl)-1-(Methylsulfonyl)-N-(1,2,4-Thiadiazol-5-yl)-1H-Indole-6-Sulfonamide]",> 10
0.147,"Cn1nccc1-c1cc(C(F)(F)F)ccc1-c1cn(C)c2cc(S(=O)(=O)Nc3ncns3)ccc12 [Example 8, 1-Methyl-3-(2-(1-Methyl-1H-Pyrazol-5-yl)-4-(Trifluoromethyl)Phenyl)-N-(1,2,4-Thiadiazol-5-yl)-1H-Indole-6-Sulfonamide]",> 10
1.7,"Cn1cc(-c2cccnc2)c2ccc(S(=O)(=O)Nc3ncns3)cc21 [Example 9, 1-Methyl-3-(Pyridin-3-yl)-N-(1,2,4-Thiadiazol-5-yl)-1H-Indole-6-Sulfonamide]",> 10
2.13,"Cn1cc(-c2cc(F)ccc2F)c2ccc(S(=O)(=O)Nc3ncns3)cc21 [Example 10, 3-(2,5-Difluorophenyl)-1-Methyl-N-(1,2,4-Thiadiazol-5-yl)-1H-Indole-6-Sulfonamide]",> 10
,"Cn1cc(-c2ccc(C(F)(F)F)c(Cl)c2)c2ccc(S(=O)(=O)Nc3ncns3)cc21 [Example 24, 3-(3-Chloro-4-(Trifluoromethyl)Phenyl)-1-Methyl-N-(1,2,4-Thiadiazol-5-yl)-1H-Indole-6-Sulfonamide]",> 10
,"COc1cc(F)ccc1-c1cn(C)c2cc(S(=O)(=O)Nc3ncns3)ccc12 [Example 28, 3-(4-FLUORO-2-METHOXYPHENYL)-1-METHYL-N-(1,2,4-Thiadiazol-5-yl)-1H-Indole-6-Sulfonamide]",> 10
,"COc1cc(OC)cc(-c2cn(C)c3cc(S(=O)(=O)Nc4ncns4)ccc23)c1 [Example 29, 3-(3,5-Dimethoxyphenyl)-1-Methyl-N-(1,2,4-Thiadiazol-5-yl)-1H-Indole-6-Sulfonamide]",> 10
,"Cn1cc(-c2ccc(F)c(C#N)c2)c2ccc(S(=O)(=O)Nc3ncns3)cc21 [Example 30, 3-(3-Cyano-4-Fluorophenyl)-1-Methyl-N-(1,2,4-Thiadiazol-5-yl)-1H-Indole-6-Sulfonamide]",7.63
,"Cn1cc(-c2ccc(C#N)c(F)c2)c2ccc(S(=O)(=O)Nc3ncns3)cc21 [Example 31, 3-(4-Cyano-3-Fluorophenyl)-1-Methyl-N-(1,2,4-Thiadiazol-5-yl)-1H-Indole-6-Sulfonamide]",> 10
,"Cn1cc(-c2ccc(OC(F)(F)F)cc2)c2ccc(S(=O)(=O)Nc3ncns3)cc21 [Example 32, 1-Methyl-N-(1,2,4-Thiadiazol-5-yl)-3-(4-(Trifluoromethoxy)Phenyl)-1H-Indole-6-Sulfonamide]",> 10
,"Cn1cc(-c2cccc(OC(F)(F)F)c2)c2ccc(S(=O)(=O)Nc3ncns3)cc21 [Example 33, 1-Methyl-N-(1,2,4-Thiadiazol-5-yl)-3-(3-(Trifluoromethoxy)Phenyl)-1H-Indole-6-Sulfonamide]",> 10

IC50 (Nav 1.7) [µM],Structure (SMILES),IC50 (Nav 1.5) [µM]
,"Cn1cc(-c2cccc(C#N)c2)c2ccc(S(=O)(=O)Nc3ncns3)cc21 [Example 34, 3-(3-Cyanophenyl)-1-Methyl-N-(1,2,4-Thiadiazol-5-yl)-1H-Indole-6-Sulfonamide]",> 10
,"Cn1cc(-c2ccccc2)c2ccc(S(=O)(=O)Nc3ncns3)cc21 [Example 35, 1-Methyl-3-Phenyl-N-(1,2,4-Thiadiazol-5-yl)-1H-Indole-6-Sulfonamide]",> 10
,"COc1ccc(-c2cn(C)c3cc(S(=O)(=O)Nc4ncns4)ccc23)c(OC)c1 [Example 36, 3-(2,4-Dimethoxyphenyl)-1-Methyl-N-(1,2,4-Thiadiazol-5-yl)-1H-Indole-6-Sulfonamide]",> 10
,"Cn1cc(-c2cccc3ccccc23)c2ccc(S(=O)(=O)Nc3ncns3)cc21 [Example 37, 1-Methyl-3-(Naphthalen-1-yl)-N-(1,2,4-Thiadiazol-5-yl)-1H-Indole-6-Sulfonamide]",> 10
,"Cn1cc(-c2cccc3ncccc23)c2ccc(S(=O)(=O)Nc3ncns3)cc21 [Example 38, 1-Methyl-3-(Quinolin-5-yl)-N-(1,2,4-Thiadiazol-5-yl)-1H-Indole-6-Sulfonamide]",> 10
,"Cn1cc(-c2cccc(S(C)(=O)=O)c2)c2ccc(S(=O)(=O)Nc3ncns3)cc21 [Example 39, 1-Methyl-3-(3-(Methylsulfonyl)Phenyl)-N-(1,2,4-Thiadiazol-5-yl)-1H-Indole-6-Sulfonamide]",> 10
,"COc1ccc(-c2cn(C)c3cc(S(=O)(=O)Nc4ncns4)ccc23)c2ccccc12 [Example 40, 3-(4-Methoxynaphthalen-1-yl)-1-Methyl-N-(1,2,4-Thiadiazol-5-yl)-1H-Indole-6-Sulfonamide]",> 10
,"COc1ccc(-c2cn(C)c3cc(S(=O)(=O)Nc4ncns4)ccc23)c(Cl)c1 [Example 41, 3-(2-Chloro-4-Methoxyphenyl)-1-Methyl-N-(1,2,4-Thiadiazol-5-yl)-1H-Indole-6-Sulfonamide]",> 10
,"Cc1noc(C)c1-c1cn(C)c2cc(S(=O)(=O)Nc3ncns3)ccc12 [Example 42, 3-(3,5-Dimethylisoxazol-4-yl)-1-Methyl-N-(1,2,4-Thiadiazol-5-yl)-1H-Indole-6-Sulfonamide]",> 10
,"Cn1cc(-c2ccc(Br)cc2C(F)(F)F)c2ccc(S(=O)(=O)Nc3ncns3)cc21 [Example 43, 3-(4-Bromo-2-(Trifluoromethyl)Phenyl)-1-Methyl-N-(1,2,4-Thiadiazol-5-yl)-1H-Indole-6-Sulfonamide]",> 10
,"Cn1cc(-c2ccccc2C(F)(F)F)c2ccc(S(=O)(=O)Nc3ncns3)cc21 [Example 44, 1-Methyl-N-(1,2,4-Thiadiazol-5-yl)-3-(2-(Trifluoromethyl)Phenyl)-1H-Indole-6-Sulfonamide]",> 10
,"Cc1cnc(N)c(-c2cn(C)c3cc(S(=O)(=O)Nc4ncns4)ccc23)c1 [Example 45, 3-(2-Amino-5-Methylpyridin-3-yl)-1-Methyl-N-(1,2,4-Thiadiazol-5-yl)-1H-Indole-6-Sulfonamide]",> 10
,"Cc1cc(C#N)ccc1-c1cn(C)c2cc(S(=O)(=O)Nc3ncns3)ccc12 [Example 46, 3-(4-Cyano-2-Methylphenyl)-1-Methyl-N-(1,2,4-Thiadiazol-5-yl)-1H-Indole-6-Sulfonamide]",> 10
,"CN(C)c1cccc(-c2cn(C)c3cc(S(=O)(=O)Nc4ncns4)ccc23)c1 [Example 47, 3-(3-(Dimethylamino)Phenyl)-1-Methyl-N-(1,2,4-Thiadiazol-5-yl)-1H-Indole-6-Sulfonamide]",> 10
,"Cn1cc(-c2cccc(C(F)(F)F)c2)c2ccc(S(=O)(=O)Nc3ncns3)cc21 [Example 48, 1-Methyl-N-(1,2,4-Thiadiazol-5-yl)-3-(3-(Trifluoromethyl)Phenyl)-1H-Indole-6-Sulfonamide]",> 10
,"COc1ccc(-c2cn(C)c3cc(S(=O)(=O)Nc4ncns4)ccc23)cc1C(F)(F)F [Example 49, 3-(4-Methoxy-3-(Trifluoromethyl)Phenyl)-1-Methyl-N-(1,2,4-Thiadiazol-5-Yl)-1H-Indole-6-Sulfonamide]",> 10
,"Cn1nccc1-c1cn(C)c2cc(S(=O)(=O)Nc3ncns3)ccc12 [Example 52, 1-Methyl-3-(1-Methyl-1H-Pyrazol-5-Yl)-N-(1,2,4-Thiadiazol-5-Yl)-1H-Indole-6-Sulfonamide]",> 10
